Reference: patent US20090275557A1, “Novel Composition for Treatment of Diseases Related to Activated Lymphocytes” (Immune Control, Inc., priority 2008, published 2009)
“And” between values parts separate entries of the source, which are not always exact repeats. Identical values can stand only once. Like-named read-outs stand apart in the source and are kept apart here. Each block holds one molecule with its values, some of them ahead of it.

Test: Pharmacokinetic study, oral gavage in fasted male Sprague-Dawley rats
Type: in vivo, rat
Conditions: for dose absorbed after oral dosing: indirectly indicated by the average bioavailability, oral 10 mg/kg
Description: ICI-1259 and ICI-1260 were supplied as powders and stored frozen until used. Dosing solutions in phosphate buffered saline were prepared at 1 mg/ml. These solutions were then evaluated in fasted male Sprague-Dawley rats. The rats were fitted with a jugular vein cannula for blood sampling. Rats were also fitted with an additional jugular vein cannula, or intradudodenal cannula as needed. Rats were given a commercial rodent diet ad libitum prior to study initiation. Food was then withheld from the animals for a minimum of twelve hours prior to dosing, until four hours postdose when food was returned. Water was supplied ad libitum. Three rats were used in each study, unless otherwise indicated.
For both ICI-1259 and ICI-1260, rats were given a 10 mg/kg dose from a 1 mg/ml solution. The appropriate volume of solution was given as a single bolus dose at time zero on the day of dosing. Blood samples were taken at predose, 5 minutes after dosing, 10 minutes after dosing, 15 minutes after dosing, 30 minutes after dosing, 1 hour after dosing, 2 hours after dosing, 4 hours after dosing, 6 hours after dosing, and 8 hours after dosing.

[1] = individual rats, oral gavage 10 mg/kg, 10 mg/kg
[2] = individual rats, oral gavage 10 mg/kg, 0.25 hr, 10 mg/kg
[3] = individual rats, oral gavage 10 mg/kg, 0.50 hr, 10 mg/kg
[4] = individual rats, oral gavage 10 mg/kg, 1.0 hr, 10 mg/kg
[5] = individual rats, oral gavage 10 mg/kg, 2.0 hr, 10 mg/kg
[6] = individual rats, oral gavage 10 mg/kg, 4.0 hr, 10 mg/kg
[7] = individual rats, oral gavage 10 mg/kg, 6.0 hr, 10 mg/kg
[8] = individual rats, oral gavage 10 mg/kg, 8.0 hr, 10 mg/kg
[9] = individual rats, oral gavage 10 mg/kg, dose normalized AUC divided by average intravenous AUC, 10 mg/kg
[10] = male, Sprague-Dawley, rat, plasma, po, 10 mg/kg, individual rats, oral gavage 10 mg/kg
[11] = male, Sprague-Dawley, rat, plasma, po, 10 mg/kg, individual rats, oral gavage 10 mg/kg, 2.0 hr
[12] = male, Sprague-Dawley, rat, plasma, po, 10 mg/kg, individual rats, oral gavage 10 mg/kg, 8.0 hr
[13] = male, Sprague-Dawley, rat, plasma, po, 10 mg/kg, individual rats, oral gavage 10 mg/kg, dose normalized AUC divided by average intravenous AUC, read-out: Bioavailability
[14] = male, Sprague-Dawley, rat, plasma, po, 10 mg/kg, individual rats, oral gavage 10 mg/kg, read-out: Cmax
[15] = male, Sprague-Dawley, rat, plasma, po, 10 mg/kg, individual rats, oral gavage 10 mg/kg, read-out: tmax
[16] = male, Sprague-Dawley, rat, plasma, po, 10 mg/kg, mean (average), oral gavage 10 mg/kg, read-out: Bioavailability
[17] = male, Sprague-Dawley, rat, plasma, po, 10 mg/kg, mean, oral gavage 10 mg/kg
[18] = male, Sprague-Dawley, rat, plasma, po, 10 mg/kg, mean, oral gavage 10 mg/kg, 0.25 hr
[19] = male, Sprague-Dawley, rat, plasma, po, 10 mg/kg, mean, oral gavage 10 mg/kg, 0.50 hr
[20] = male, Sprague-Dawley, rat, plasma, po, 10 mg/kg, mean, oral gavage 10 mg/kg, 1.0 hr
[21] = male, Sprague-Dawley, rat, plasma, po, 10 mg/kg, mean, oral gavage 10 mg/kg, 2.0 hr
[22] = male, Sprague-Dawley, rat, plasma, po, 10 mg/kg, mean, oral gavage 10 mg/kg, 4.0 hr
[23] = male, Sprague-Dawley, rat, plasma, po, 10 mg/kg, mean, oral gavage 10 mg/kg, 6.0 hr
[24] = male, Sprague-Dawley, rat, plasma, po, 10 mg/kg, mean, oral gavage 10 mg/kg, 8.0 hr
[25] = male, Sprague-Dawley, rat, plasma, po, 10 mg/kg, mean, oral gavage 10 mg/kg, read-out: Cmax
[26] = male, Sprague-Dawley, rat, plasma, po, 10 mg/kg, mean, oral gavage 10 mg/kg, read-out: tmax

dose absorbed after oral dosing: approximately 38%
AUClast [1]: 98.7 ng·h/mL and 74.2 ng·h/mL
Cmax [1]: 28.4 ng/mL and 24.3 ng/mL
Plasma concentration (individual rats, oral gavage 10 mg/kg, 0.083 hr, BLOQ = below limit of quantitation (1 ng/mL)): BLOQ
Plasma concentration [2]: 1.10 ng/mL and 3.38 ng/mL and 4.62 ng/mL
Plasma concentration [3]: 1.56 ng/mL and 3.45 ng/mL and 5.39 ng/mL
Plasma concentration [4]: 5.21 ng/mL and 17.6 ng/mL and 4.81 ng/mL
Plasma concentration [5]: 28.4 ng/mL and 24.3 ng/mL
Plasma concentration [6]: 7.49 ng/mL and 7.34 ng/mL
Plasma concentration [7]: 10.8 ng/mL and 6.73 ng/mL
Plasma concentration [8]: 4.35 ng/mL and 3.04 ng/mL
bioavailability [9]: 17% and 13%
AUC(0-t) [10]: 65.2 ng·h/mL
concentration at 2 hr [11]: 16.6 ng/mL
concentration at 4 hr (male, Sprague-Dawley, rat, plasma, po, 10 mg/kg, individual rats, oral gavage 10 mg/kg, 4.0 hr): 8.31 ng/mL
concentration at 6 hr (male, Sprague-Dawley, rat, plasma, po, 10 mg/kg, individual rats, oral gavage 10 mg/kg, 6.0 hr): 7.85 ng/mL
concentration at 8 hr [12]: 3.28 ng/mL
bioavailability [13]: 11%
Cmax [14]: 16.6 ng/mL
Tmax [15]: 2 h
bioavailability [16]: 14%
AUC(0-t) [17]: 79.4 ng·h/mL
concentration at 0.25 hr [18]: 3.03 ng/mL
concentration at 0.5 hr [19]: 3.47 ng/mL
concentration at 1 hr [20]: 9.21 ng/mL
concentration at 2 hr [21]: 23.1 ng/mL
concentration at 4 hr [22]: 7.71 ng/mL
concentration at 6 hr [23]: 8.46 ng/mL
concentration at 8 hr [24]: 3.56 ng/mL
Cmax [25]: 23.1 ng/mL
Tmax [26]: 2 h
Dose Normalized AUClast (mean, oral gavage 10 mg/kg): 7.94 kg·ng·h/mL/mg
SMILES: CNCC(=O)NCCCN1CCC(CCCN2c3ccccc3Sc3ccc(C(F)(F)F)cc32)CC1 [ICI-1259, 2-(methylamino)-N-(3-(4-(3-(2-(trifluoromethyl)-10H-phenothiazin-10-yl)propyl)piperidin-1-yl)propyl)acetamide]
Dose Normalized AUClast [1]: 6.52 kg·ng·h/mL/mg and 9.87 kg·ng·h/mL/mg and 7.42 kg·ng·h/mL/mg

dose absorbed after oral dosing: approximately 26%
AUClast [1]: 84.9 ng·h/mL and 95.9 ng·h/mL
Cmax [1]: 22.2 ng/mL and 25.9 ng/mL
Tmax [1]: 1.0 h
t1/2 [1]: 2.6 h
Plasma concentration (individual rats, oral gavage 10 mg/kg, 0.083 hr, BLOQ = below limit of quantitation (1 ng/mL), 10 mg/kg): 1.33 ng/mL and BLOQ
Plasma concentration [2]: 9.32 ng/mL and 2.68 ng/mL and 7.31 ng/mL
Plasma concentration [3]: 8.00 ng/mL and 3.02 ng/mL and 6.16 ng/mL
Plasma concentration [4]: 5.33 ng/mL and 5.38 ng/mL and 25.9 ng/mL
Plasma concentration [5]: 22.2 ng/mL and 24.0 ng/mL
Plasma concentration [6]: 4.89 ng/mL and 11.7 ng/mL and 7.39 ng/mL
Plasma concentration [7]: 19.8 ng/mL and 9.71 ng/mL and 8.98 ng/mL
Plasma concentration [8]: 2.87 ng/mL and 3.93 ng/mL
bioavailability [9]: 9.0%
AUC∞ (individual rats, oral gavage 10 mg/kg, extrapolated to infinity, 10 mg/kg): 111 ng·h/mL
AUC(0-t) [10]: 112 ng·h/mL
half-life [10]: 2.2 h
concentration at 0.083 hr (male, Sprague-Dawley, rat, plasma, po, 10 mg/kg, individual rats, oral gavage 10 mg/kg, 0.083 hr, BLOQ = below limit of quantitation (1 ng/mL)): 1.48 ng/mL
concentration at 2 hr [11]: 33.8 ng/mL
concentration at 8 hr [12]: 3.13 ng/mL
bioavailability [13]: 13%
AUC(0-inf) (male, Sprague-Dawley, rat, plasma, po, 10 mg/kg, individual rats, oral gavage 10 mg/kg, extrapolated to infinity): 94 ng·h/mL
Cmax [14]: 33.8 ng/mL
Tmax [15]: 2 h
bioavailability [16]: 11%
AUC(0-t) [17]: 97.7 ng·h/mL
half-life [17]: 2.4 h
concentration at 0.083 hr (male, Sprague-Dawley, rat, plasma, po, 10 mg/kg, mean, oral gavage 10 mg/kg, 0.083 hr): 1.41 ng/mL
concentration at 0.25 hr [18]: 6.44 ng/mL
concentration at 0.5 hr [19]: 5.73 ng/mL
concentration at 1 hr [20]: 12.2 ng/mL
concentration at 2 hr [21]: 26.7 ng/mL
concentration at 4 hr [22]: 7.99 ng/mL
concentration at 6 hr [23]: 12.8 ng/mL
concentration at 8 hr [24]: 3.31 ng/mL
AUC(0-inf) (male, Sprague-Dawley, rat, plasma, po, 10 mg/kg, mean, oral gavage 10 mg/kg, extrapolated to infinity): 102 ng·h/mL
Cmax [25]: 27.3 ng/mL
Tmax [26]: 1.7 h
Dose Normalized AUClast (mean, oral gavage 10 mg/kg): 9.77 kg·ng·h/mL/mg
Dose Normalized AUC∞ (mean, oral gavage 10 mg/kg): 10.2 kg·ng·h/mL/mg
SMILES: NCC(=O)NCCCN1CCC(CCCN2c3ccccc3Sc3ccc(C(F)(F)F)cc32)CC1 [ICI-1260, 2-amino-N-(3-(4-(3-(2-(trifluoromethyl)-10H-phenothiazin-10-yl)propyl)piperidin-1-yl)propyl)acetamide]
Dose Normalized AUClast [1]: 11.2 kg·ng·h/mL/mg and 8.49 kg·ng·h/mL/mg and 9.59 kg·ng·h/mL/mg
Dose Normalized AUC∞ [1]: 9.40 kg·ng·h/mL/mg and 11.1 kg·ng·h/mL/mg
